According to US8871751B2, “Compositions and methods relating to nuclear hormone and steroid hormone receptors including inhibitors of estrogen receptor alpha-mediated gene expression and inhibition of breast cancer” (The Board of Trustees of the University of Illinois, priority 2008, dated 2014):

Test system: BT474 cells
Test: E2-ERα-dependent growth of BT474 cells (MTS)
Type: cell-based
Details: Homo sapiens, BT-474, 96 h, 100 pM E2, 4 days, read-out: IC50 for inhibition of E2-ERα-dependent growth of BT474 cells
Procedure: FIG. 20 illustrates further activity of TPSF in the inhibition of tamoxifen-resistant human breast cancer cells. The effects of TPSF on the E2-ERα-dependent growth of tamoxifen-resistant BT474 and ZR-75 cells were assessed. […] The cells were maintained in medium containing 10% CD-FBS (ZR-75) or 10% CD-CS (BT474) containing or lacking 100 pM E2 and the indicated concentrations of TPSF. Viable cells were measured by comparison to a standard curve of cell number versus absorbance using the MTS assay. Data represents the average of at least 4 wells. IC50 values for TPSF inhibition of cell growth were calculated by curve-fitting using Sigma Plot.
Assays for Cell Growth and Viability. Cells were maintained in the media listed above containing CD-treated serum for at least 4 days prior to the experiment. To minimize cell aggregation, MCF-7 cells were harvested in 10 mM Hepes, pH 7.4, 1 mM EDTA. Other cell lines were harvested in trypsin-EDTA. 1,000 cells were plated into each well of a 96 well plate. For slow growing ZR-75 cells, 2,000 cells were plated/well. The cells were maintained in medium containing CD-treated serum for 24 hours. At 24 hours the medium was changed and E2 and DMSO vehicle or TPSF in DMSO was added. […] After 4 days viable cells were determined using a cell viability test, Promega CellTiter 96 Aqueous One Solution Cell Proliferation Assay (MTS) (Promega, Wis.).

## Cn1c(=S)c2[nH]c(SCCCC(=O)c3ccc(F)cc3)nc2n(C)c1=O [TPSF, Butyrophenone, p-fluoro-4-(1,2,3,6,-tetrahydro-1,3-dimethyl-2-oxo-6-thionopurin-8-ylthio)]
  IC50: 1600 nM
